This is an account of results in patent US7268161B2, “Comprehensive pharmacologic therapy for treatment of obesity including cysteine” (priority 1999, dated 2007).

In one test the test system is tachyphylaxis. Kind of test: Cysteine therapy in patients with tachyphylaxis from drugs that increase synaptic norepinephrine. It counts as in vivo. The following applies: patients on drugs which cause increased levels of norepinephrine in the synapse. The text has this: The core of Tyrosine Hydroxylase is a “heme-thiolate” protein (see FIG. 1). The “heme-thiolate” protein is composed of iron in the form of a cytochrome P-450 complex and Cysteine. Patients experiencing tachyphylaxis from drugs which cause increased levels of norepinephrine in the synapse, generally have serum iron levels which are normal.

A further test has as its system norepinephrine. The following applies: drugs used in treatment of a patient for weight loss; cited from earlier work.

The structures appear in SMILES notation. A value given as a limit tells only on which side of the number the result lay.

Consider `N[C@@H](CS)C(=O)O` [Cysteine], for which the reversal of tachyphylaxis result in the test on tachyphylaxis is on record as “effective in reversing the tachyphylaxis”.

As for `CC(C)(N)Cc1ccccc1` [Phentermine], in the test with norepinephrine, the “increase of intersynaptic levels of norepinephrine” value is given as ≥ 2,500 times.
